Assay results published in patent US4755522A, “Derivatives of N-[3-(2,4,6-trimethoxybenzoyl)propyl]piperidine, and their use in therapeutics” (priority 1986, dated 1988).
Values joined by “and” are separate entries in the source; they are usually repeats but may differ in a detail not shown here. Identical values can stand only once. “Also recorded” adds a separate entry of the source. Like-named read-outs stand apart in the source and are kept apart here.

Legend:
[1] = test system: left descending coronary artery ligature; test: Dog with left descending coronary artery ligatured 24 hours earlier, I.V.; assay type: in vivo
Experimental: In a dog of which the left descending coronary artery had been ligatured 24 hours earlier, the compound was administered by intravenous route at increasing doses: 0.5-1-2.5-5-10 mg/kg. every 30 minutes.

[2] = test system: arrhythmias with aconitine; test: Arrhythmias with aconitine in the guinea-pig; assay type: in vivo
Experimental: (§1) The compound was administered by intravenous route at a dose of 10 mg/kg to a series of 10 albino guinea-pigs of 380 to 495 g, anaesthetized with urethane.
(§2) 5 minutes later, they receive an I.V. perfusion of the product causing arrhythmia at a dosage of 0.09 mg/min. in a volume of 0.6 ml/min.
(§3) The compound is compared with quinidine at a dose of 5 mg/kg I>V> and with a series of controls.
(§4) Lots are drawn for the treatments.
B--Action on arrhythmias with aconitine.

cardiac arrhythmias = test: Treatment of cardiac arrhythmias in man; assay type: in vivo; details: capsules or tablets 200 mg, 3 to 4 per day
Experimental: The compound of example 1 in the form of capsules or tablets with doses of 200 mg, 3 to 4 per day, has given good results in the treatment of cardiac arrhythmias in man.

cardio-vascular system = test: Action on the cardio-vascular system in the anaesthetized dog; assay type: in vivo
Experimental: (b) Action on the cardio-vascular system (in the dog).
(§5) 3 dogs (average weight, 12 kg) anaesthetized with nembutal, receive the compound by intra-duodenal route at successive doses of 0.1-0.5-2.5-10 and 20 mg/kg.
The arterial pressure, the cardiac rate, the femoral arterial flow, the vertebral arterial flow, the rectal and skin temperatures are all measured. The coloration of the skin is observed.
(§6) 3 dogs (average weight, 14 kg) anaesthetized with nembutal, received the CRL 41,390 by intra-duodenal route, at successive doses of 0.1-0.5-1-2.5-5-10-20 mg/kg, then a supplementary dose of 10 mg/kg I.V.
The arterial pressure, the cardiac frequency, the femoral arterial flow, the vertebral arterial flow, the rectal and cutaneous temperatures, were measured. The coloration of the skin was observed.

noradrenaline = test: Hypertension with noradrenaline after the compound (dog); assay type: in vivo
Experimental: as §5, §6
Hypertension to noradrenaline is not modified: at 2 mcg/kg of noradrenaline, the systolic arterial pressure passes, after administration of the product, from 160 to 290 mmHg/161 to 289 mmHg in the control.

awakened dog = test: Toxic effects in the awakened dog, I.V. cumulative; assay type: in vivo
ectopic heart-beats = test: Ectopic heart-beats in dogs with coronary artery ligature a few weeks earlier; assay type: in vivo, dog; details: I.D.; for minimal effective dose: Canis lupus familiaris, intraduodenal, read-out: dose re-establishing a normal rhythm
Experimental: as §5
Two of these three dogs having undergone a ligature of a coronary artery a few weeks earlier still presented numerous ectopic heart-beats.

[3] = test system: ventricular fibrillation (V.F.) by inhalation of chloroform; test: Lawson's test in mice (ventricular fibrillation by inhalation of chloroform); assay type: in vivo
Excerpt: (c) Anti-arrhythmic action in the mouse. Research on the anti-arrhythmic activity by intraperitoneal route on Lawson's test in mice (ventricular fibrillation (V.F.) by inhalation of chloroform, all or nothing response) has given the following results (10 mice per dose).

[4] = test system: arrhythmias caused by adrenaline; test: Arrhythmias caused by adrenaline I.V., 4 days after coronary ligature (dog); assay type: in vivo
Experimental: 4 days after the ligature of the coronary, this same dog received injections I.V. of 5 mcg/kg of adrenaline which caused arrhythmias. The number of ectopic beats caused by adrenaline reduces starting from the dose of 5 mg/kg I.V. while the percentage of ectopic beats referred to the total cardiac frequency is 79% in comparison with 100% in the control and 46% 10 minutes after the dose of 10 mg/kg (64% after 40 minutes, 88% after 90 minutes).

[5] = test system: arrhythmias caused by injection of adrenaline; test: Arrhythmias caused by adrenaline + petroleum ether (dog); assay type: in vivo; details: 39.1 mg/kg I.D.
Experimental: In the third dog, arrhythmias were caused by injection of adrenaline (10 mcg/kg), preceded by an intra-trachealinjection of petroleum ether (0.1 ml/kg before and after administration of the 39.1 mg/kg (in cumulative doses) of the compound. On the E.C.G., the number of beats of sinusoidal origin and the number of ectopic beats per minute are counted which follow the injection of adrenaline. |Dose of compound | Number of beats in 1 minute |mg/kg I.D. ectopic sinusoidal

mice = assay type: in vivo; details: 260 mg/kg I.P. (footnote *)
[6] = test system: arrhythmias with K-strophanthin; test: Arrhythmias with K-strophanthin in the guinea-pig; assay type: in vivo; details: 10 mg/kg I.V.
Experimental: as §1, §2, §3, §4
A--Action on arrhythmias with K-strophanthin.

isoprenaline = test: Effects of isoprenaline on arterial pressure and cardiac rate after the compound (dog); assay type: in vivo
Experimental: as §6

Question: What does the source list for `COc1cc(OC)c(C(=O)CCCN2CCCC(CO)C2)c(OC)c1.Cl` (stereo not shown) [CRL 41,391, N-[3-(2,4,6-trimethoxybenzoyl)propyl]-3-piperidinemethanol hydrochloride]?
Answer: sinusoidal beats ([1]; 2.5 mg/kg I.V.): ≥ 5%; sinusoidal beats ([1]; 5 mg/kg I.V., 5 minutes after injection): 19%; vomitting ([1]; 10 mg/kg I.V.): brief vomitting; sinusoidal beats ([1]; 20 minutes after the injection): 41%; sinusoidal beats ([1]; 40 minutes): 25%; sinusoidal beats ([1]; 60 minutes): 15%; minimal effective dose ([1]; Canis lupus familiaris, iv, I.V., zero sinusoidal beats in the control, read-out: dose from which sinusoidal beats increase): 2.5 mg/kg; change of cardiac frequency ([1]; after 10 mg/kg I.V.): -25%; cardiac frequency ([1]; after 10 mg/kg I.V., from 231): 174 beats/minute; increase of cardiac frequency (average) ([2]; 10 mg/kg I.V.): 12 beats/minute; action on aconitine compared with quinidine ([2]; 10 mg/kg I.V. vs quinidine 5 mg/kg): greater than that observed after pre-treatment with 5 mg/kg of quinidine; cardiac frequency (conclusion, K-strophanthin and aconitine) ([2]; 10 mg/kg I.V., anaesthetized guinea-pig): without modifying or with very moderate increase in the cardiac frequency; appearance of incidents in the E.C.G. due to aconitine ([2]; 10 mg/kg I.V., hydrochloride): significantly retards; also recorded: significantly delays; treatment of cardiac arrhythmias in man (cardiac arrhythmias): good results; effect on heart rate (cardio-vascular system; 20 mg/kg I.D.): slightly reduces the heart rate; minimal effective dose (cardio-vascular system; Canis lupus familiaris, intraduodenal, I.D., read-out: dose from which femoral flow increases): 5 mg/kg; effect on rectal and cutaneous temperatures (cardio-vascular system; I.D.): does not modify the rectal and cutaneous temperatures; effect on vertebral flow (cardio-vascular system; I.D.): reduces the vertebral flow; effect on femoral flow (cardio-vascular system; I.D., starting at 5 mg/kg): increases the femoral flow; effect on the arterial pressure (cardio-vascular system; intra-duodenal, successive doses to 20 mg/kg, nembutal): no effect on the arterial pressure; systolic pressure after the product, before noradrenaline (noradrenaline; 39.1 mg/kg I.D. cumulative, control 153): 149 mmHg; systolic pressure after the product, with noradrenaline (noradrenaline; 2 mcg/kg noradrenaline I.V., 39.1 mg/kg I.D. cumulative, control 271): 256 mmHg; hypertension with noradrenaline (noradrenaline; after 39.1 mg/kg I.D. cumulative): slightly reduced; nictitating membrane (awakened dog; 70 mg/kg I.V. total): released for 10 minutes; vomiting, cumulative dose (awakened dog; I.V., 5 minutes after the injection, hydrochloride): 40 mg/kg and 70 mg/kg; somnolence (awakened dog; I.V., total 70 mg/kg): a certain somnolence was observed; minimal effective dose (ectopic heart-beats; one dog): 2.5 mg/kg; minimal effective dose (ectopic heart-beats; the other dog): 10 mg/kg; normal rhythm (ectopic heart-beats; two dogs): re-established a normal rhythm in these two dogs; % of mice not presenting V.F. ([3]; 5 mg/kg I.P.): 22%; % of mice not presenting V.F. ([3]; 10 mg/kg I.P.): 50%; % of mice not presenting V.F. ([3]; 20 mg/kg I.P.): 70%; ectopic beats referred to the total cardiac frequency ([4]; 5 mg/kg I.V., control 100%): 79%; ectopic beats referred to the total cardiac frequency ([4]; 10 mg/kg I.V., after 40 minutes): 64%; ectopic beats referred to the total cardiac frequency ([4]; 10 mg/kg I.V., after 90 minutes): 88%; ectopic beats referred to the total cardiac frequency ([4]; 10 minutes after 10 mg/kg I.V.): 46%; minimal effective dose ([4]; Canis lupus familiaris, iv, I.V., adrenaline 5 mcg/kg I.V., read-out: dose from which ectopic beats caused by adrenaline are reduced): 5 mg/kg; number of ectopic beats caused by adrenaline+petroleum ether [5]: strongly reduces the number of ectopic beats; Number of beats in 1 minute, sinusoidal ([5]; 35 at dose 0): 173; Number of beats in 1 minute, ectopic ([5]; 163 at dose 0): 26; convulsions (mice): convulsions; appearance of incidents in the E.C.G. due to K-strophanthin [6]: significantly delays; cardiac frequency [6]: does not significantly modify the cardiac frequency; diastolic arterial pressure after the product, before isoprenaline (isoprenaline; 39.1 mg/kg I.D. cumulative, control 120): 107 mmHg; cardiac rate after the product, before isoprenaline (isoprenaline; 39.1 mg/kg I.D. cumulative, control 157): 160 beats/minute; diastolic arterial pressure after the product, with isoprenaline (isoprenaline; 10 mcg/kg isoprenaline I.V., 39.1 mg/kg I.D. cumulative, control 37): 36 mmHg; change of diastolic arterial pressure with isoprenaline (isoprenaline; 10 mcg/kg isoprenaline I.V., 39.1 mg/kg I.D. cumulative, control 83): 71 mmHg; cardiac rate after the product, with isoprenaline (isoprenaline; 10 mcg/kg isoprenaline I.V., 39.1 mg/kg I.D. cumulative, control 273): 255 beats/minute; effects of isoprenaline on arterial pressure and cardiac rate (isoprenaline; after accumulated dose 39.1 mg/kg I.D.): very slightly reduced
